Here are results for six molecules from patent US7259144B2, “Methods for diagnosing and treatment of hyperphosphatemic conditions using FGF20 polypeptides” (CuraGen Corporation, priority 2003, dated 2007).

The test system of one assay is NIH 3T3 cells. Put plainly: Induction of DNA synthesis (BrdU incorporation) in NIH 3T3 cells. Type of assay: cell-based. The conditions noted are these: serum-starved NIH 3T3 cells; 18 h factor, 4 h BrdU incorporation. How it is done:
Receptor Specificity NIH 3T3 cells were cultured in 96-well plates to approximately 100% confluence, washed and fed with DMEM without supplements (Life Technologies), and incubated for 24 h. Recombinant CG53135-01 or control protein was then added to the cells for 18 h. Control proteins used were aFGF (positive control) and platelet derived growth factor-BB (PDGFBB) (negative control). To analyze the effect of soluble FGFRs on CG53135-05 activity, recombinant CG53135-05, aFGF, or PDGF-BB (final concentrations of 10, 5 and 3 ng/mL, respectively), were mixed with soluble receptors (final concentrations of 0.2, 1 and 5 ug/mL), and incubated for 30 min at 37° C. prior to addition to serum-starved NIH 3T3 cells. Factor concentrations represent the amount of ligand needed to generate a half maximal BrdU response in NIH 3T3 cells. Soluble FGFRs were Fc chimeras of the following receptor forms (FGFR1β(IIIc); FGFR2β(IIIb); FGFR2α(IIIb); FGFR2α(IIIc); FGFR3α(IIIc); FGFR4) and were obtained from R&D Systems (Minneapolis, Minn.). The BrdU assay was performed according to the manufacturer's specifications (Roche Molecular Biochemicals, Indianapolis, Ind.) using a 4 h BrdU incorporation time.
On the technique in general: Incorporation of labelled thymidine or its analogues reports DNA synthesis.

Assay [1] has as its system Caco2 cells. Description: Caco2 cell proliferation (3H thymidine incorporation) with FGF-20 and kinase inhibitors. Format: cell-based. The conditions noted are these: inhibitor added 1 hr before FGF-20 (100 ng/ml), PD098059 1, 5, 20, 40 μM, SB203580 1, 10, 20 μM. How it is done:
FIG. 7 depicts effect of kinase inhibitors in the proliferation of Caco2 cells. Caco2 cells were incubated with FGF-20 (100 ng/ml) in the presence of various concentrations (1, 5, 20 and 40 μM) of PD098059, inhibitor of MEK which is upstream of ERK or various concentrations (1, 10, 20 μM) of SB203580, inhibitor of p38 MAPK inhibitor.
In addition to the above results, MEK inhibitor PD098059 (1, 5, 20, and 40μM CALBIOCHEM, CA), and p38 MAPK inhibitor SB203580 (1,10,20 μM CALBIOCHEM, CA) were added to the Caco2 cell cultures 1 hr before FGF-20 treatment. Cellular proliferation was tested by standard 3H thymidine incorporation assay known in the art.

The subject of assay [2] is Caco2 cells. Description: Expression of signal transducing kinases in Caco2 cells with FGF-20. Format: cell-based. How it is done: FIG. 4 depicts effect of FGF20 (CG53135) in stimulation of kinases in Caco2 cells. Expression of signal transducing kinases was analyzed after incubation of Caco2 cells with FGF-20 (100 ng/ml) for different time points (10, 30, 60 mins).
(§1) FIG. 6 depicts Effect of FGF-20 on expression of kinases in intestinal epithelial cells. Caco2 cells were incubated with FGF-20 (100 ng/ml) for 10, 30, 60 minutes and expression of p-Elk-1, p-ATF-2 and p-PKC was analyzed. Similarly, HT-29 cells were incubated with FGF-20 (100 ng/ml) for 10, 30, 60 minutes and expression of C-Fos and C-Jun was analyzed.
(§2) MAPK-dependent mechanism may be involved in the regulation of phosphate uptake by FGF signaling. To test this hypothesis, various kinases were tested for their expression in the presence of 100 ng/ml of FGF-20, in Caco2 cells. […] In HT-29 cells, C-Fos and C-Jun were induced, when cultured with FGF-20 (FIG. 6).

Assay [3] is described as follows: Serum phosphate levels after CG53135-05 treatment, Rhesus monkey model. Format: in vivo. The conditions noted are these: slow bolus i.v. once daily, 1, 10 mg/kg, dose-dependent (FIG. 2). Here is the method: (§3) To evaluate the role of FGF20 in reduction of phosphate levels, two different animal models (rat and rhesus monkeys) were tested for serum phosphates following treatment with FGF20. Recombinant human FGF20 and the serum phosphate levels were measured. General protocols for the rat and Rhesus monkey models are outlined in the following Tables 1 (for the rat) and 2 (for the Rhesus monkey) below:
(§4) Both animal groups were dosed via a slow bolus intravenous injection in the tail vein, once daily for 14 days. The first day of dosing was designated as study day (“SD”) 1. Animals were dosed through SD 14.

Assay [4] is described as follows: Serum phosphate levels after CG53135-05 treatment, rat model. Format: in vivo. The conditions noted are these: slow bolus i.v. once daily, 0.05, 5, 50 mg/kg, dose-dependent (FIG. 1). Here is the method: as §3, §4
A further assay concerns HT-29 cells. Put plainly: Expression of C-Fos and C-Jun in HT-29 cells with FGF-20. Format: cell-based. The conditions noted are these: 100 ng/ml, 10, 30, 60 minutes. How it is done:
as §1, §2

Another assay deals with OK cells. Description: Phosphate uptake in OK cells. Format: cell-based, opossum. The conditions noted are these: at 50 ng/ml. Here is the method:
FIG. 8 depicts effect of FGF9 protein in phosphate transport. OK cells were treated with various concentrations of FGF9 protein and phosphate uptake was measured as noted in Example 6.
FIG. 9 depicts effect of FGF10 protein in phosphate transport. OK cells were treated with various concentrations of FGF10 protein and phosphate uptake was measured as noted in Example 6.
Measurement of phosphate transport is performed in cultured renal proximal tubular epithelial cell line using opossum kidney (OK) cells, in the presence of FGF-20 (CG53135-05). Briefly, OK cells are grown at 37° C. in Dulbecco's modified Eagle's medium with 10% fetal calf serum and seeded in multi-well dishes (6, 24, 96 well dishes). The phosphate uptake in OK cells is determined according to the method described by Hafdi et al (Biochem. J. 1996, 320:615-621).
Role of FGF9 and FGF10 in phosphate uptake was measured by the method described in Biochem. J. 1996, 320:615-621.

As to “aFGF: positive control protein; factor known to interact with all of the FGFR's under analysis [reference compound]”, in the assay with NIH 3T3 cells, the “amount of ligand needed to generate a half maximal BrdU response” value (from here on “amount of ligand needed”) was 5 ng/mL.
Take `C[S+]([O-])c1ccc(-c2nc(-c3ccncc3)c(-c3ccc(F)cc3)[nH]2)cc1` (stereo not drawn) [SB203580]: the “cellular proliferation (3H thymidine incorporation)” value in the assay with Caco2 cells [1] is listed as “decrease in cellular proliferation”.
Same read-out and setting: as for `COc1cccc(-c2cc(=O)c3ccccc3o2)c1N` [PD098059], the entry is “decrease in cellular proliferation”.
For the molecule “CG53135-05: Recombinant human fibroblast growth factor 20 produced in E. coli; Swiss-Prot Q9NP95; SEQ ID NO:1”, in the assay with Caco2 cells [2] (100 ng/ml, 10, 30, 60 mins), the “expression of other kinases tested” value is “no other kinase tested, showed any significant induction” and the “phosphorylated MAPK (p-p38MAPK) expression” value is “induced”. Further, in the assay with Caco2 cells [2] (100 ng/ml, 10, 30, 60 minutes), the “expression of phosphorylated ATF-2” value is listed as “increased expression”, the “expression of phosphorylated Elk-1” value is “increased expression” and the “expression of phosphorylated Protein Kinase C” value is reported as “minimal induction”. Besides, the serum phosphate levels result in assay [3] is on record as “Statistically significant reductions”. Also, in assay [4], the serum phosphate levels result is “Statistically significant reductions”. For the same molecule, in the assay on NIH 3T3 cells, the “amount of ligand needed” value was 10 ng/mL. In the assay on HT-29 cells, the C-Fos expression entry is “induced” and the C-Jun expression result is on record as “induced”.

B1: FGF10: human FGF 10 protein, Swiss-Prot Accession No: O15520 (protein, UniProt O15520 38-208, looked up)
Fibroblast growth factor 10: QALGQDMVSPEATNSSSSSFSSPSSAGRHVRSYNHLQGDVRWRKLFSFTKYFLKIEKNGKVSGTKKENCPYSILEITSVEIGVVAVKAINSNYYLAMNKKGKLYGSKEFNNDCKLKERIEENGYNTYASFNWQHNGRQMYVALNGKGAPRRGQKTRRKNTSAHFLPMVVHS
For B1, the phosphate transport entry in the assay with OK cells is recorded as “more efficient in inhibiting the phosphate transport”.

B2: PDGF-BB: platelet derived growth factor-BB, negative control protein (protein, UniProt P01127 82-190, looked up)
Platelet-derived growth …: SLGSLTIAEPAMIAECKTRTEVFEISRRLIDRTNANFLVWPPCVEVQRCSGCCNNRNVQCRPTQVQLRPVQVRKIEIVRKKPIFKKATVTLEDHLACKCETVAAARPVT
modifications: homodimer
notes: platelet derived growth factor-BB, negative control protein
As for B2, the “amount of ligand needed” value in the assay on NIH 3T3 cells is recorded as 3 ng/mL.
